Laboratory results as given in PMC8875489, “Pharmaceutical and Safety Profile Evaluation of Novel Selenocompounds with Noteworthy Anticancer Activity” (Pharmaceutics, 2022).
Where two headings read alike, the source gives them in different places.

Legend:
[1] = system: Salmonella Typhimurium TA100 strain; conditions: for Fold Increase over Baseline / MI (mutagenic index) / B (binomial B value) / cytotoxic effect label beside B value: TA100; for Fold Increase over Baseline: alert ≥ 2.0; for MI (mutagenic index): mutagenic if MI ≥ 2; for B (binomial B value): threshold ≥ 0.99; for mutagenicity conclusion in Ames test: TA100, 1 and 10 µM
Method: Safety profiles were evaluated using an in vitro microbiological method adapted to the microplate Ames test (384-well microtitration plate), which applies Salmonella enterica serovar Typhimurium bacterial strains (the gold standard in mutagenicity research). The experiment was performed according to a previously described protocol, which is provided in the Supplementary Materials. Briefly, the TA 100 strain (deprived of the ability to synthesize the histidine) was incubated with each tested compound in an exposure medium containing a limited amount of histidine. The reversion events were counted both manually and by means of a microplate reader. Each fold increase bigger than two times the baseline level (≥2.0-fold) was considered to indicate a mutagen alert. The experiments and data analyses were prepared according to the procedure that was previously described by Flückiger-Isler et al.. The assay was performed in triplicate. The positive control selected for the mutagenicity assays was NQNO, which causes genome point mutations; specifically, it promotes G:C → A:T transitions in the Salmonella Typhimurium TA-100 strain and other bacteria such as Vibrio harveyi and Escherichia coli.
In the next step of the studies, the in vitro safety profiles of the tested selenocompounds were evaluated. All compounds were tested with the 384-well plate microfluctuation Ames test. The mutagenic index (MI) was used as the measure of mutagenicity.
1.5. Safety profile evaluation - Ames microplate mutagenicity assay
Safety profile was evaluated by the means of in vitro microbiological methods – adapted to microplate Ames test, which applies Salmonella enterica serovar Typhimurium bacterial strains (the gold standard in mutagenicity research).
1.5.1. Compounds preparation
To evaluate the impact of tested compounds and of references on Salmonella enterica serovar Typhimurium (onwards Salmonella Typhimurium) TA-100 strain growth by means of the Ames test, the compounds or the reference were dissolved in the pure DMSO, to obtain the corresponding 10 mM stock solutions. Working solutions for tested compounds (25 μM and 250 μM concentrations) were prepared before the assay in DMSO.
1.5.2. Microplate Ames mutagenicity assay protocol
Prior to the experiment, Salmonella Typhimurium was cultured overnight (NB-2 liq-uid medium in the presence of 25 μg/mL ampicillin). At the day of the experiment, fresh dilutions of the tested compounds (25 μM and 250 μM), reference compound (methylse-leninic acid) and standard mutagen (4-nitroquinoline-N-oxide at 2.5 μM and 12.5 μM) in DMSO were prepared. The positive control selected for the mutagenicity assays was NQNO, which causes point mutations at the genome. Specifically, it promotes G:C → A:T transitions in Salmonella Typhimurium TA-100 strain and in the other bacteria such as Vib-rio harveyi and Escherichia coli.
The mutagenic potential of the tested derivatives was evaluated by the incubation of the abovementioned bacteria (deprived of the ability to synthesize the histidine) with spe-cific concentrations of the tested compounds (for 90 min in the exposure medium), con-taining a limited amount of histidine (enough to provide approximately 2-3 cell divisions).
The occurrence of reversion events to histidine prototrophy was observed through the bacterial growth in the indicator medium without histidine after 48 h of incubation in temperature of 37° C [45]. The final compound and the mutagenic agent concentrations in each single well of a 384 well plate were 1 μM and 10 μM for the compounds; and 0.1 μM and 0.5 μM for the mutagen. Lastly, both a manual count and a microplate reader were used to obtain the results. The medium control baseline (MCB) was estimated as the mean number of revertants in the medium control plus one standard deviation. Each fold in-crease bigger than two times the baseline level ≥ 2.0 was considered as a mutagen alert.

[2] = Chemical stability in acidic and alkaline environments (TLC-monitored); assay type: physicochemical; conditions: TLC at 10 min, 1, 2, 3, 24, 48 h; for chemical stability in the acidic environment: 2 mg/mL in methanol + 10% HCl 1:1; for chemical stability in the alkaline environment: 2 mg/mL in methanol + 10% NaOH 1:1
Method: The chemical stability of the new organic selenocompounds was evaluated in two different environments (acidic and alkaline). Firstly, tested selenocompounds were dissolved in pure anhydrous methanol to obtain a stock solution with a concentration of 2 mg/mL. Then, the solution was divided into two equal parts. A 10% solution of HCl was added in 1:1 proportion to the first part, and a 10% solution of NaOH was added to the second part in the same 1:1 proportion. Then, the stability of the tested Se compounds, either in the acidic or in the basic conditions, was TLC-monitored at specific time periods: 10 min and 1, 2, 3, 24, and 48 h. The following eluents were used: (i) methylene chloride for EDA-26, EDA-73, EDA-74, EDA-93, EDA-109, EDA-119, EDA-120, and EDA-122; a mixture of n-hexane and ethyl acetate in a 4:1 ratio for EDA-58; (ii) chloroform for EDA-71 and EDA-A6; and (iii) acetone for EDA-117.
In the next step of the experiments, the chemical stability of 11 selenoesters (EDA-26, EDA-71, EDA-73, EDA-74, EDA-58, EDA-93, EDA-109, EDA-117, EDA-119, EDA-120 and EDA-122) and the selenoanhydride EDA-A6 in acidic and alkaline environments was evaluated by the use of a previously described method. Unfortunately, it was not possible to estimate the chemical stability of the compounds EDA-46, EDA-53, EDA-56, and […] due to their physicochemical properties: they were liquid at room temperature in the form of an oil, which is not miscible with water.

SMILES	Fold Increase over Baseline ([1]; 1 µM)	MI (mutagenic index) ([1]; 1 µM)	B (binomial B value) ([1]; 1 µM)	Fold Increase over Baseline ([1]; 10 µM)	mutagenicity conclusion in Ames test [1]	chemical stability in the acidic environment [2]	chemical stability in the alkaline environment [2]	MI (mutagenic index) ([1]; 10 µM)	B (binomial B value) ([1]; 10 µM)	cytotoxicity for Salmonella Typhimurium in Ames test ([1]; 10 µM)	cytotoxic effect label beside B value ([1]; 10 µM)
COC(=O)C[Se]C(=O)c1cc(OC)c(OC)c(OC)c1 [EDA-26, methyl 2-((3,4,5-trimethoxybenzoyl)selanyl)acetate]	0.96	1.51	0.92	1.37	may have had mutagenic potential	stable till the end of the analysis (48 h)	totally unstable				
COC(=O)C[Se]C(=O)c1cc(OC)cc(OC)c1 [EDA-58, methyl 2-((3,5-dimethoxybenzoyl)selanyl)acetate]	0.67	0.57	0.80	1.78				1.51	1.00		
CC(=O)C[Se]C(=O)c1ccc(Cl)cc1 [EDA-71, Se-(2-oxopropyl) 4-chlorobenzoselenoate]	0.60	0.54	0.34	0.89		totally unstable	unstable	0.79	0.98		
CC(C)(C)C(=O)C[Se]C(=O)c1ccc(Cl)cc1 [EDA-73, Se-(3,3-dimethyl-2-oxobutyl) 4-chlorobenzoselenoate]	0.84	1.28	0.72	0.52		stable till the end of the experiment (48 h)	unstable	0.79	0.04		
COc1cc(OC)cc(C(=O)[Se]CC(=O)C(C)(C)C)c1 [EDA-74, Se-(3,3-dimethyl-2-oxobutyl) 3,5-dimethoxybenzoselenoate]	0.98	0.88	0.94	0.76		stable till the end of the experiment (48 h)	unstable	0.69	0.68		
O=C(C[Se]C(=O)c1ccccc1)Oc1ccccc1 [EDA-93, phenyl 2-(benzoylselanyl)acetate]	1.02	1.27	0.96	0.87		unstable	unstable	1.08	0.80		
C[Se]C(=O)c1ccc(C(=O)[Se]C)cc1 [EDA-109, Se,Se-dimethyl benzene-1,4-bis(carboselenoate)]	0.55	0.96	0.07	0.39		stable till the end of the analysis (48 h)	totally unstable	0.67		cytotoxic activity was observed	C (data points that are significantly smaller (B ≤ 0.01 (bolded)) than the mean number of spontaneous revertants are labelled C for “cytotoxic effect”)
C[Se]C(=O)c1cccc(C(=O)[Se]C)n1 [EDA-119, Se,Se-dimethyl pyridine-2,6-bis(carboselenoate)]	0.54	0.56	0.24	0.92				0.96	0.90		
C[Se]C(=O)c1cccc(C(=O)[Se]C)c1 [EDA-120, Se,Se-dimethyl benzene-1,3-bis(carboselenoate)]		1.24	1.00		non-mutagenic	stable till the end of the analysis (48 h)	totally unstable	1.46	1.00		
C[Se]C(=O)c1ccc(C(=O)[Se]C)s1 [EDA-122, Se,Se-dimethyl thiophene-2,5-bis(carboselenoate)]	0.63	0.84	0.14	1.08				1.46	0.94		
O=C1[Se]C(=O)c2ccccc21 [EDA-A6, benzo[c]selenophene-1,3-dione]	1.08	1.23	0.94	0.33			unstable	0.38	0.001	could have been cytotoxic	C (data points that are significantly smaller (B ≤ 0.01 (bolded)) than the mean number of spontaneous revertants are labelled C for “cytotoxic effect”)
